From US20120308673A1, “COMPOSITION COMPRISING THE EXTRACT OF PRUNELLA VULGARIS L. FOR PREVENTING AND TREATING ADHD DISEASE AND THE USE THEREOF” (priority 2009, published 2012)

What was measured:
SHR animal model [1] = assay: Effect on hyperactivity of SHR animal model (total movement distance and duration in test box); type: in vivo, rat; details: 3 mg/kg intraperitoneally, 30 mins after treatment, recorded for 10 mins
Experimental: To test the inhibitory effect of the extract of […] prepared in Example 1 on the hyperactivity of SHR animals, following test was performed according to the procedure disclosed in the literature (Kong, W. X et al., Effect on taurine on rat behaviors in three anxiety models, (2006), Pharmacology Biochem., Behavior 83:271-276; Arulmozhi D. K. et al, Pharmacological studies of the aqueous extract of Sapindus trifoliatus on central nervous system: possible ant-migraine mechanism, J. Ethnophamacol., 97:491-496).
The rats were acclimated with the environment for 1 week and with apparatus more than once for 10 mins prior to test. PV70E and PVW prepared in Example 1 used as test groups as well as methylphenidate (Johnson Mattey Public Limited Co.) used as a positive control were intraperitoneally administered into mice in a dose of 3 mg/kg.
30 mins after the treatment with test samples, the SHR mice, i.e., ADHD animal models, and normal mice used as negative control were placed on the test box to examine the movement of mice and to determine the total movement distance and total movement duration of the mice for 10 mins using by analysis apparatus (EthoVision system; Noldus IT b.v., Netherland).

SHR animal model [2] = assay: Effect on alternation behavior of SHR animal model (modified Y-maze test); type: in vivo, rat; details: 8 min period, dose dependent, p<0.05, FIG. 3
Experimental: To test the inhibitory effect of the extract of […] prepared in Example 1 on the alternation behavior of SHR animals, following modified Y-maze test was performed according to the procedure disclosed in the literature (Sarter M., et al., Attenuation of scopolamine-induced impairment of spontaneous alternation by antagonist but not agonist and agonist beta-carbolines, (1988), Psychopharmacology (Berl). 94:491-495; Kim D. H. et al, Gomisin A improves scopolamine-induced memory impairment in mice, (2006), Eur. J. Pharmacol., 542:129-235).
The Y-maze test was conducted in a three-arm maze with angles of 120° between the arms designates as A, B and C respectively, which were 42 cm long and 3 cm wide with walls that were 12 cm high each. The maze floor and walls were constructed from dark opaque polyvinyl plastic. Mice were initially placed within one arm and the sequence and number of arm entries were recorded manually for each mouse over an 8 min period. The percentage of triads in which all the arms were represented, i.e., ABC, CAB or BCA but not BAB, was recorded as an ‘alternation’ to estimate short-term memory. Control group animals received 0.9% saline solution and scopolamine (1 mg/kg, i.p.) or vehicle was introduced to induce memory impairment 30 mins before the test. […] The alternation score (%) for each mouse was calculated according to following math formula 1: […]

COC(=O)C(c1ccccc1)C1CCCCN1 (stereo not drawn) [methylphenidate]
general movement of SHR (total movement distance and rearing number) (SHR animal model [1]; SHR, FIGS. 1 and 2): did not affect
movement of normal mice (SHR animal model [1]; normal mice): increased the movement
alternation behavior of SHR (SHR animal model [2]): inhibiting effect
